Experiments:
[1] = target: 5-hydroxytryptamine receptor 1A (Homo sapiens) (UniProt P08908); conditions: Compound concentration 10.0 uM
[2] = target: Uncharacterized serine/threonine-protein kinase SBK3 (Homo sapiens) (UniProt P0C264); conditions: Compound concentration 1000.0 nM
[3] = target: Cyclin-dependent kinase 18 (Homo sapiens) (UniProt Q07002); conditions: Compound concentration 1000.0 nM
[4] = target: Serine/threonine-protein kinase 25 (Homo sapiens) (UniProt O00506); conditions: Compound concentration 1000.0 nM
[5] = target: Receptor-interacting serine/threonine-protein kinase 4 (Homo sapiens) (UniProt P57078); conditions: Compound concentration 1000.0 nM
Chain of Receptor-interacting serine/threonine-protein kinase 4 (Homo sapiens) (P57078 whole entry): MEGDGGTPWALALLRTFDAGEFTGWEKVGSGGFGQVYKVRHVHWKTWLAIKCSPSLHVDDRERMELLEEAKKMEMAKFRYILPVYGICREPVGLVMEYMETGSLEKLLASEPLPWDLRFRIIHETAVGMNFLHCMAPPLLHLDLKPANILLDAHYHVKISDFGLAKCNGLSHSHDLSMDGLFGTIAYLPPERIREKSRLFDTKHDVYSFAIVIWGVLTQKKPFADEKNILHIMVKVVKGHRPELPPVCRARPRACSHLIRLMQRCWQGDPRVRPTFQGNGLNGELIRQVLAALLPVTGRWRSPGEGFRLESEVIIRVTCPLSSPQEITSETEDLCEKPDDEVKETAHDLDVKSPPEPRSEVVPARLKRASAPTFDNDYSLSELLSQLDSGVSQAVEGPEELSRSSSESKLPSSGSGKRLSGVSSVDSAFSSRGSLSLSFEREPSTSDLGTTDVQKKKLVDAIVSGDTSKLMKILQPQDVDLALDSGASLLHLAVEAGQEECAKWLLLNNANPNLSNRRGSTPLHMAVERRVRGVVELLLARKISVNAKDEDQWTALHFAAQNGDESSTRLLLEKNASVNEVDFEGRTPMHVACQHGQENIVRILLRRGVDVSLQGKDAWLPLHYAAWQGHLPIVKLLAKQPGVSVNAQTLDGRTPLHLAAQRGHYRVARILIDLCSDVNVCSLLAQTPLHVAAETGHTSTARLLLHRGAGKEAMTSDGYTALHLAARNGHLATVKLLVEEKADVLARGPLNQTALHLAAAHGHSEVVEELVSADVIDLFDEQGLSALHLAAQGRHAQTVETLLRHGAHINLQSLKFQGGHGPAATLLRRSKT

[6] = target: Serine/threonine-protein kinase 38-like (Homo sapiens) (UniProt Q9Y2H1); conditions: Compound concentration 1000.0 nM
[7] = system: Receptor-type tyrosine-protein kinase FLT3 (Homo sapiens), P36888 [UNDEFINED MUTATION]; conditions: Compound concentration 1000.0 nM
[8] = target: Serine/threonine-protein kinase SIK3 (Homo sapiens) (UniProt Q9Y2K2); conditions: Compound concentration 1000.0 nM
[9] = target: Glycogen synthase kinase-3 beta (Homo sapiens) (UniProt P49841); conditions: Compound concentration 1000.0 nM
[10] = target: Serine/threonine-protein kinase 24 (Homo sapiens) (UniProt Q9Y6E0); conditions: Compound concentration 1000.0 nM
[11] = target: Ephrin type-A receptor 2 (Homo sapiens) (UniProt P29317); conditions: Compound concentration 1000.0 nM
[12] = target: Sigma intracellular receptor 2 (Homo sapiens) (UniProt Q5BJF2); conditions: Compound concentration 10.0 uM
[13] = target: Mitogen-activated protein kinase kinase kinase kinase 2 (Homo sapiens) (UniProt Q12851); conditions: Compound concentration 1000.0 nM
[14] = target: Serine/threonine-protein kinase Nek10 (Homo sapiens) (UniProt Q6ZWH5); conditions: Compound concentration 1000.0 nM
[15] = system: Epidermal growth factor receptor (Homo sapiens), P00533 [L858R]; conditions: Compound concentration 1000.0 nM
[16] = target: D(1A) dopamine receptor (Homo sapiens) (UniProt P21728); conditions: Compound concentration 10.0 uM
Chain of D(1A) dopamine receptor (Homo sapiens) (P21728 whole entry): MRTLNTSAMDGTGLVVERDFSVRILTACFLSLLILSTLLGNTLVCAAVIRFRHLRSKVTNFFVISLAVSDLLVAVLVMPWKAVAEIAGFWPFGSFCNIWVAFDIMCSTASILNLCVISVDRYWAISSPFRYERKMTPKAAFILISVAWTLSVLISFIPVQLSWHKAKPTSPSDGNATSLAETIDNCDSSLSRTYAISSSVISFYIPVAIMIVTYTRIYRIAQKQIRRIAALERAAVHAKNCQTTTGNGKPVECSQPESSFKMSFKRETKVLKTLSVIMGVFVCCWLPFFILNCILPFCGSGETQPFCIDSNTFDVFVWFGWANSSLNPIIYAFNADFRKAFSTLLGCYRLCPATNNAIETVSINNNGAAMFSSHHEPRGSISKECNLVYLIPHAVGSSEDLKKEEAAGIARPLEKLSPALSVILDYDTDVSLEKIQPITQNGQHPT

[17] = target: Serine/threonine-protein kinase TAO1 (Homo sapiens) (UniProt Q7L7X3); conditions: Compound concentration 1000.0 nM
[18] = target: Mitogen-activated protein kinase 14 (Homo sapiens) (UniProt Q16539); conditions: Compound concentration 1000.0 nM
[19] = target: Cytoplasmic tyrosine-protein kinase BMX (Homo sapiens) (UniProt P51813); conditions: Compound concentration 1000.0 nM
[20] = target: Mitogen-activated protein kinase kinase kinase 13 (Homo sapiens) (UniProt O43283); conditions: Compound concentration 1000.0 nM
[21] = target: Non-receptor tyrosine-protein kinase TYK2 (Homo sapiens) (UniProt P29597); conditions: Compound concentration 1000.0 nM
Chain of Non-receptor tyrosine-protein kinase TYK2 (Homo sapiens) (P29597 whole entry): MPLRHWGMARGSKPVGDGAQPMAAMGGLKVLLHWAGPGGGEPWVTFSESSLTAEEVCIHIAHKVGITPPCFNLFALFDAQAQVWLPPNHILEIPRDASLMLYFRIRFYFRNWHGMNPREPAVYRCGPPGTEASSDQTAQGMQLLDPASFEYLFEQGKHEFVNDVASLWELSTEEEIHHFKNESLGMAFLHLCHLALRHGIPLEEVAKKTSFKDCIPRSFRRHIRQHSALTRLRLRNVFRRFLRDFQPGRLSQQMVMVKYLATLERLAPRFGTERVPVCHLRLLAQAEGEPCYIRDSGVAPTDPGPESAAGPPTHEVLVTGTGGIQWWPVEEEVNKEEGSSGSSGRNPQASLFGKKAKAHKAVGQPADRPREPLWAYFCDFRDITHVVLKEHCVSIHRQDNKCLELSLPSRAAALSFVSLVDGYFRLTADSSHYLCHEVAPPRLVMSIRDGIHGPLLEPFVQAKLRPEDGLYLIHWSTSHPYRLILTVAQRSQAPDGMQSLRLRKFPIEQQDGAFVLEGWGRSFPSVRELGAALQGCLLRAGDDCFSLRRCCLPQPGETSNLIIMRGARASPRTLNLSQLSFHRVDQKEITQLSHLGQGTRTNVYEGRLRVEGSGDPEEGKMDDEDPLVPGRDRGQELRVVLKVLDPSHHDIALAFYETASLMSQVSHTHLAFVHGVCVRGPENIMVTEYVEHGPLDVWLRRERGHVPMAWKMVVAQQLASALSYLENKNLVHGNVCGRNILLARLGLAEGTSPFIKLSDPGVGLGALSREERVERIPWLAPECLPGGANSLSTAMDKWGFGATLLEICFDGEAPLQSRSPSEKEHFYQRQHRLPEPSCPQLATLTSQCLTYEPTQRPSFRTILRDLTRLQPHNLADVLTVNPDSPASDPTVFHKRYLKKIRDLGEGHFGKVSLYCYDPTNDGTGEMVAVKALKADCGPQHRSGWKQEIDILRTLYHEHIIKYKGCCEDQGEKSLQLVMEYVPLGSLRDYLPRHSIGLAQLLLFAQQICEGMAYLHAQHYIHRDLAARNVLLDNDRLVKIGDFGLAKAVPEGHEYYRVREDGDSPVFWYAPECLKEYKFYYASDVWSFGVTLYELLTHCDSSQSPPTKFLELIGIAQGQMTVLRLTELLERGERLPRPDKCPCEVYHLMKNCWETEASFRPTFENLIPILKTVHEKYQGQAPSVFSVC

[22] = target: Activin receptor type-2B (Homo sapiens) (UniProt Q13705); conditions: Compound concentration 1000.0 nM
[23] = target: Serine/threonine-protein kinase SBK1 (Homo sapiens) (UniProt Q52WX2); conditions: Compound concentration 1000.0 nM
[24] = system: Proto-oncogene tyrosine-protein kinase receptor Ret (Homo sapiens), P07949 [V804M]; conditions: Compound concentration 1000.0 nM
Chain of Proto-oncogene tyrosine-protein kinase receptor Ret (Homo sapiens), P07949 [V804M] (P07949 whole entry V804M, the tested form may be a part): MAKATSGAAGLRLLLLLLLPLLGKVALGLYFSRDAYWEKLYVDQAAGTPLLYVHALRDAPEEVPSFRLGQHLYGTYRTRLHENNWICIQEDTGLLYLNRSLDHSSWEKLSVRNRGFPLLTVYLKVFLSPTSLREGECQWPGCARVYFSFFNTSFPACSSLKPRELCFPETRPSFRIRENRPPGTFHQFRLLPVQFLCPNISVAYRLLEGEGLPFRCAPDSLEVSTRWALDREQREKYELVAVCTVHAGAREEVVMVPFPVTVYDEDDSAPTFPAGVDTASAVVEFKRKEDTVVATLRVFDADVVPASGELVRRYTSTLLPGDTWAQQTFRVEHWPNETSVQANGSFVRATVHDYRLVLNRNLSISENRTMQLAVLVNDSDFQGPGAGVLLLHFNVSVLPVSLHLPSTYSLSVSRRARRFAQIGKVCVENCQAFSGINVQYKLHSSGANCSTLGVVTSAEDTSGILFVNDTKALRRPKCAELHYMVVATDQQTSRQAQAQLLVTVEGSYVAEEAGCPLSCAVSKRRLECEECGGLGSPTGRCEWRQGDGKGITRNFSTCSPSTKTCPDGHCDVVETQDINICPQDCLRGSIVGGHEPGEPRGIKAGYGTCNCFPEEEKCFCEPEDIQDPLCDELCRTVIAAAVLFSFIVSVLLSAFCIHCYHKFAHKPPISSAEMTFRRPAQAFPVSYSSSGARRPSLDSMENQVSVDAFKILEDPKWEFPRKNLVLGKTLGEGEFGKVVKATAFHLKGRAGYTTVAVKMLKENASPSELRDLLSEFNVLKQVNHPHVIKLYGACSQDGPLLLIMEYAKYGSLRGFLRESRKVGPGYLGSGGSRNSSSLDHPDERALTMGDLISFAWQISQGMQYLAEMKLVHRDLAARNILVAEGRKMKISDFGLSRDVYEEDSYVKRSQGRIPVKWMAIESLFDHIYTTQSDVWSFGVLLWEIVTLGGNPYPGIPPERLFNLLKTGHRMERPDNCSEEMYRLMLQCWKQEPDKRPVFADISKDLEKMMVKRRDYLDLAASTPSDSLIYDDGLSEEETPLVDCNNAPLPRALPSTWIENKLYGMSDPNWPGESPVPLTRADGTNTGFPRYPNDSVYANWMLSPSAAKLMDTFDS

[25] = target: Phosphatidylinositol 3-kinase C2 domain-containing subunit gamma (Homo sapiens) (UniProt O75747); conditions: Compound concentration 1000.0 nM
[26] = target: Serine/threonine-protein kinase Nek7 (Homo sapiens) (UniProt Q8TDX7); conditions: Compound concentration 1000.0 nM
Chain of Serine/threonine-protein kinase Nek7 (Homo sapiens) (Q8TDX7 whole entry, looked up): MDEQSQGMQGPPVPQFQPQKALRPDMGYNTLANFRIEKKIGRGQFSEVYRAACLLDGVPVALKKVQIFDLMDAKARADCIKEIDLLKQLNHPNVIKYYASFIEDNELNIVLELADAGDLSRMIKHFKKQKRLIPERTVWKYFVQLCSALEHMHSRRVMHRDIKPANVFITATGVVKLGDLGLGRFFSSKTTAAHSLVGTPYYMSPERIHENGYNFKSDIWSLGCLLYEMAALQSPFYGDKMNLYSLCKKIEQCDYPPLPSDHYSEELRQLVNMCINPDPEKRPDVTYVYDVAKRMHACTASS

[27] = target: NUAK family SNF1-like kinase 2 (Homo sapiens) (UniProt Q9H093); conditions: Compound concentration 1000.0 nM
[28] = target: Alpha-2A adrenergic receptor (Homo sapiens) (UniProt P08913); conditions: Compound concentration 10.0 uM
Chain of Alpha-2A adrenergic receptor (Homo sapiens) (P08913 whole entry): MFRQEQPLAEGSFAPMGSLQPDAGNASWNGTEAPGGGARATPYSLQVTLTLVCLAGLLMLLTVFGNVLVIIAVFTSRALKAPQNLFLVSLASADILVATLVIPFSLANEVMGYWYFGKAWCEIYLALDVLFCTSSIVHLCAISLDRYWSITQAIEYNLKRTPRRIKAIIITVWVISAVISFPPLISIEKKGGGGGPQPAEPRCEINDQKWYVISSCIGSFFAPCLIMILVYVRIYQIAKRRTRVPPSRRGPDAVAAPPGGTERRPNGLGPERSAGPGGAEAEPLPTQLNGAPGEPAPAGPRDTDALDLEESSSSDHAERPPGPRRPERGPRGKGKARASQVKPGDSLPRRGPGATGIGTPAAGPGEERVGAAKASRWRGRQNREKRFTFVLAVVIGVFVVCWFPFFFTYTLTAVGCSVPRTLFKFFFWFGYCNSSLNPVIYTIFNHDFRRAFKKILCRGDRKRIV

[29] = target: Sodium-dependent serotonin transporter (Homo sapiens) (UniProt P31645); conditions: Compound concentration 10.0 uM
[30] = system: Phosphatidylinositol 4,5-bisphosphate 3-kinase catalytic subunit alpha isoform (Homo sapiens), P42336 [E545K]; conditions: Compound concentration 1000.0 nM
[31] = target: Ribosomal protein S6 kinase alpha-1 (Homo sapiens) (UniProt Q15418); conditions: Compound concentration 1000.0 nM
[32] = target: Phosphatidylinositol 4-phosphate 5-kinase type-1 alpha (Homo sapiens) (UniProt Q99755); conditions: Compound concentration 1000.0 nM
[33] = target: Membrane-associated tyrosine- and threonine-specific cdc2-inhibitory kinase (Homo sapiens) (UniProt Q99640); conditions: Compound concentration 1000.0 nM
[34] = target: Serine/threonine-protein kinase MRCK gamma (Homo sapiens) (UniProt Q6DT37); conditions: Compound concentration 1000.0 nM
[35] = target: Serine/threonine-protein kinase 3 (Homo sapiens) (UniProt Q13188); conditions: Compound concentration 1000.0 nM
[36] = target: Serine/threonine-protein kinase Chk1 (Homo sapiens) (UniProt O14757); conditions: Compound concentration 1000.0 nM
[37] = target: Histamine H1 receptor (Homo sapiens) (UniProt P35367); conditions: Compound concentration 10.0 uM
[38] = target: Homeodomain-interacting protein kinase 4 (Homo sapiens) (UniProt Q8NE63); conditions: Compound concentration 1000.0 nM
Chain of Homeodomain-interacting protein kinase 4 (Homo sapiens) (Q8NE63 whole entry, canonical isoform): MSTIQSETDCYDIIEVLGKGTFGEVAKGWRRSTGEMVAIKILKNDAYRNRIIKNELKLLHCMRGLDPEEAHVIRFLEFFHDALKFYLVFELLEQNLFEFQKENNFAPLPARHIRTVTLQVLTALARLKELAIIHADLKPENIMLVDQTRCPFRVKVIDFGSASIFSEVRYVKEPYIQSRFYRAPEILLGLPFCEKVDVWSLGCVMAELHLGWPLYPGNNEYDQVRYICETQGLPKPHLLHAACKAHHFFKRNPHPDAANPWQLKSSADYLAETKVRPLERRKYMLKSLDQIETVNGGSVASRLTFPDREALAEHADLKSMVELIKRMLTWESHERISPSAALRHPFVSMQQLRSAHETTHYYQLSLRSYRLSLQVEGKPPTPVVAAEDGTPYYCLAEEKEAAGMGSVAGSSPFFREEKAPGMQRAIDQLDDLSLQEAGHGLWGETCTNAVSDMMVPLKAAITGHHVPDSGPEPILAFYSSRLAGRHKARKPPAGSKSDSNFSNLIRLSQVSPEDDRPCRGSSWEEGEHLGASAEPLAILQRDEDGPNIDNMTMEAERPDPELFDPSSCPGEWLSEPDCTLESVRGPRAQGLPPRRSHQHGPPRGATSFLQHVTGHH

[39] = target: Casein kinase I isoform gamma-2 (Homo sapiens) (UniProt P78368); conditions: Compound concentration 1000.0 nM
[40] = system: Mast/stem cell growth factor receptor Kit (Homo sapiens), P10721 [V559D,T670I]; conditions: Compound concentration 1000.0 nM
[41] = target: Dual specificity protein kinase CLK1 (Homo sapiens) (UniProt P49759); conditions: Compound concentration 1000.0 nM
[42] = target: Epidermal growth factor receptor (Homo sapiens) (UniProt P00533); conditions: Compound concentration 1000.0 nM
[43] = target: Tyrosine-protein kinase JAK2 (Homo sapiens) (UniProt O60674); conditions: Compound concentration 1000.0 nM
[44] = target: SRSF protein kinase 3 (Homo sapiens) (UniProt Q9UPE1); conditions: Compound concentration 1000.0 nM
[45] = system: Receptor-type tyrosine-protein kinase FLT3 (Homo sapiens), P36888 [N841I]; conditions: Compound concentration 1000.0 nM

`Cc1cc(-n2nc(Cc3cc(F)cc(C(F)(F)F)c3)nc2C)ccc1C(N)=O` [TP-024] gave an inhibition [1] of -4.42%, a residual activity [2] of 91% and a residual activity [3] of 100%. It also gave a residual activity [4] of 89%, a residual activity [5] of 95% and a residual activity [6] of 49%. It also gave a residual activity [7] of 100%, a residual activity [8] of 83% and a residual activity [9] of 98%. For the same molecule, the residual activity [10] was 100%, the residual activity [11] was 100% and the inhibition [12] was -7.3%. The residual activity [13] was 100%, the residual activity [14] was 100% and the residual activity [15] was 100%. It also gave an inhibition [16] of -4.72%, a residual activity [17] of 91% and a residual activity [18] of 95%. It also gave a residual activity [19] of 100%, a residual activity [20] of 100% and a residual activity [21] of 100%. For the same molecule, the residual activity [22] was 100%, the residual activity [23] was 98% and the residual activity [24] was 100%. It also gave a residual activity [25] of 100%, a residual activity [26] of 97% and a residual activity [27] of 100%. The inhibition [28] was 8.93%, the inhibition [29] was -1.29% and the residual activity [30] was 71%. It also gave a residual activity [31] of 100%, a residual activity [32] of 100% and a residual activity [33] of 88%. For the same molecule, the residual activity [34] was 100%, the residual activity [35] was 100% and the residual activity [36] was 100%. It also gave an inhibition [37] of 8.06%, a residual activity [38] of 100% and a residual activity [39] of 79%. The residual activity [40] was 100%, the residual activity [41] was 86% and the residual activity [42] was 100%. For the same molecule, the residual activity [43] was 100%, the residual activity [44] was 100% and the residual activity [45] was 99%.
In the case of `Cc1nc(Cc2cccc(C(F)(F)F)c2)sc1-c1ccc(C(N)=O)nc1` [TP-024n], the inhibition [1] is reported as -2.04%, the residual activity [2] is reported as 100% and the residual activity [3] is reported as 100%. It also gave a residual activity [4] of 88%, a residual activity [5] of 83% and a residual activity [6] of 44%. The residual activity [7] was 100%, the residual activity [8] was 75% and the residual activity [9] was 100%. The residual activity [10] was 100%, the residual activity [11] was 68% and the inhibition [12] was -8.52%. It also gave a residual activity [13] of 100%, a residual activity [14] of 100% and a residual activity [15] of 100%. It also gave an inhibition [16] of -6.03%, a residual activity [17] of 81% and a residual activity [18] of 100%. The residual activity [19] was 59%, the residual activity [20] was 100% and the residual activity [21] was 100%. The residual activity [22] was 86%, the residual activity [23] was 100% and the residual activity [24] was 88%. For the same molecule, the residual activity [25] was 93%, the residual activity [26] was 98% and the residual activity [27] was 100%. The inhibition [28] was 4.44%, the inhibition [29] was -7.18% and the residual activity [30] was 77%. It also gave a residual activity [31] of 79%, a residual activity [32] of 100% and a residual activity [33] of 67%. For the same molecule, the residual activity [34] was 100%, the residual activity [35] was 97% and the residual activity [36] was 100%. For the same molecule, the inhibition [37] was 9.3%, the residual activity [38] was 100% and the residual activity [39] was 82%. It also gave a residual activity [40] of 91%, a residual activity [41] of 83% and a residual activity [42] of 100%. The residual activity [43] was 100%, the residual activity [44] was 100% and the residual activity [45] was 86%.

From ChEMBL document CHEMBL4507305, “Data for DCP probe TP-024” (2021)
